Where “and” joins values, the source holds several entries; their conditions need not be identical. Identical values can stand only once. Like-named read-outs stand apart in the source and are kept apart here.
Key:
[1] = test system: primary human endothelial colony-forming cells (ECFCs), cord blood clones
[2] = cited from earlier work
[3] = test system: primary human endothelial colony-forming cells (ECFCs), cord blood clones; assay: cells; details: read-out: IC50, range between individual ECFC clones
in vitro = details: human
[4] = test system: polyclonal ECFC line CB002; format: cell-based, human; details: 0.390625 μM; 48 h
[5] = read-out: IC50, range between individual ECFC clones

With `O.[Cl][Cd][Cl]` [CdCl2, Cadmium Chloride Hydrate] the “IC10, range between individual ECFC clones” value [1] was 4.2 to 9.3 µM, the “average IC10 (mean and standard deviation)” value [1] was 6.7 ± 1.85 µM and the cells killed [1] was about 100%. The cytotoxicity [1] was “not cytotoxic” and the IC50 [1, 5] was 12.3 to 18 µM.

In the case of `O.O.O.O.O.O.O.O=[As]([O-])([O-])O.[Na+].[Na+]` [Na2HAsO4, Sodium arsenate dibasic heptahydrate], the cells killed [1] is reported as 0% and the “effect on ECFC viability / toxicity” value [1] is reported as “no effect”.

For `CCC[CH2][Sn]([Cl])([CH2]CCC)[CH2]CCC` [TBT, Tributyltin Chloride], the “IC10, range between individual ECFC clones” value [1] was 0.2 to 0.5 µM, the “average IC10 (mean and standard deviation)” value [1] was 0.3 ± 0.11 µM and the IC50 [1, 5] was 1.2 to 2.3 µM.

For `CC1=C(C/C=C(\C)CCC[C@H](C)CCC[C@H](C)CCCC(C)C)C(=O)c2ccccc2C1=O` [Phytonadione, phytonadione, reference compound], the “effect on ECFC viability / toxicity” value [1] was “not toxic”.

For `CC1=CC(=O)c2ccccc2C1=O` [Menadione, 2-methyl-1,4-naphthoquinone, reference compound], the blood level ([2]; observed in a clinical setting) is listed as 500 to 2000 nM, the “level found in the blood” value ([2]; volunteers after ingestion of 10 mg menadione sodium bisulfite tablets) is listed as 20 nM and the IC50 [3] is listed as 8 to 26.3 µM. For the same molecule, the “IC10, range between individual ECFC clones” value [1] was 5.6 to 19.0 µM, the “average IC10 (mean and standard deviation)” value [1] was 11.5 ± 5.03 µM and the cells killed [1] was 100%. The live cells [1] was under 50% and the viability at 10 µM (in vitro) was 100%.

With `[Cl-].[Cl-].[Zn+2]` [ZnCl2, Zinc Chloride] the cytotoxicity [1] was “cytotoxic” and the effect on viability [1] was “did not affect viability”.

With `O=[As][O-].[Na+]` [NaAsO2, Sodium (meta)arsenite] the “raw CFDA fluorescence per well” value [4] was 4689 and 4248 and 2550 and 2844 and 2369 and 3435, the “IC10, range between individual ECFC clones” value [1] was 1.1 to 5.0 µM and the “average IC10 (mean and standard deviation)” value [1] was 2.4 ± 1.16 µM. For the same molecule, the cells killed [1] was 100% and the IC50 ([1]; read-out: IC50 ± SD) was 7.5 ± 4.7 µM.

From PMC6308159 (Frontiers in Public Health, 2018)
